Measured values from patent US8476265B2, “Compounds-801” (AstraZeneca AB, priority 2010, dated 2013).
Structures can show the parent of a compound that is named as a salt.

Key:
[1] = molecular target: T1, human muscarinic acetylcholine M3 receptor (Homo sapiens, UniProt P20309); experiment: Muscarinic 3 receptor binding assay ([3H]NMS competition, SPA), pIC50; conditions: [3H]NMS 0.1 nM, CHO-K1 cell membranes expressing human M3 receptor
T1 construct: expressed in transfected cells; host or cells: CHO-K1 (Chinese Hamster Ovary) cell membranes
Method: Muscarinic 3 Receptor Binding Assay
The affinity (pIC50) of compounds binding to the M3 receptor is determined by competition binding of [^3H]N-methyl scopolamine (NMS) to CHO-K1 (Chinese Hamster Ovary) cell membranes expressing the human muscarinic acetylcholine M3 receptor (M3-ACh) in a scintillation proximity assay (SPA) format.
SPA beads are precoated with membranes and then incubated at 2 mg of beads per well with serial dilutions of compounds of the invention, [^3H]NMS at 0.1 nM, quarter Kd (experimentally determined dissociation constant) and assay buffer (20 mM HEPES pH 7.4 containing 5 mM MgCl2 and 0.1% (w/v) bovine serum albumin). The assay is conducted in a final volume of 200 μL, in the presence of 1% (v/v) dimethyl sulphoxide (DMSO). Total binding of [^3H]NMS is determined in the absence of competing compound and non-specific binding of [^3H]NMS is determined in the presence of 1 μM atropine. The plates are incubated for 16 hours at room temperature and then read on Wallac Microbeta™ using a normalised ^3H protocol. The pIC50, defined as the negative logarithm of the molar concentration of compound required for 50% reduction in specific [^3H]-NMS binding, is determined.

[2] = molecular target: T2, Adrenergic β2 (Homo sapiens, UniProt P07550); experiment: Adrenergic β2 mediated cAMP production in H292 cells (AlphaScreen), concentration response; type: cell-based; conditions: for EC50: 60 min, 300 μM rolipram, read-out: β2 pEC50 (converted); for β2 Intrinsic Activity: fraction relative to the maximum activity determined for formoterol
T2 construct: Adherent H292 cells are removed from tissue culture flasks by treatment with Accutase™ cell detachment solution; endogenous in cells; host or cells: H292 cells
Method: Assay for Adrenergic 132 Mediated cAMP Production
H292 cells are grown in 225 cm2 flasks incubator at 37° C., 5% CO2 in RPMI medium containing 10% (v/v) FBS (foetal bovine serum) and 2 mM L-glutamine.
Adherent H292 cells re removed from tissue culture flasks by treatment with Accutase™ cell detachment solution for 15 minutes. Flasks are incubated for 15 minutes in a humidified incubator at 37° C., 5% CO2. Detached cells are re-suspended in RPMI media (containing 10% (v/v) FBS and 2 mM L-glutamine) at 0.1×10^6 cells per mL. 10000 cells in 100 μl, are added to each well of a tissue-culture-treated 96-well plate and the cells incubated overnight in a humidified incubator at 37° C., 5% CO2. The culture media is removed and cells are washed twice with 100 μL assay buffer and replaced with 50 μl assay buffer (HBSS solution containing 10 mM HEPES pH7.4 and 5 mM glucose). Cells are rested at room temperature for 20 minutes after which time 25 μl of rolipram (1.2 mM made up in assay buffer containing 2.4% (v/v) dimethylsulphoxide) is added. Cells are incubated with rolipram for 10 minutes after which time test compounds are added and the cells are incubated for 60 minutes at room temperature. The final rolipram concentration in the assay is 300 μM and final vehicle concentration is 1% (v/v) dimethylsulphoxide. The reaction is stopped by removing supernatants, washing once with 100 μL assay buffer and replacing with 50 μL lysis buffer. The cell monolayer is frozen at −80° C. for 30 minutes (or overnight).
AlphaScreen™ cAMP detection
The concentration of cAMP (cyclic adenosine monophosphate) in the cell lysate is determined using AlphaScreen™ methodology. The frozen cell plate is thawed for 20 minutes on a plate shaker then 10 μL of the cell lysate is transferred to a 96-well white plate. 40 μL of mixed AlphaScreen™ detection beads pre-incubated with biotinylated cAMP, is added to each well and the plate incubated at room temperature for 3 hours in the dark. The AlphaScreen™ signal is measured using an EnVision spectrophotometer (Perkin-Elmer Inc.) with the recommended manufacturer's settings. cAMP concentrations are determined by reference to a calibration curve determined in the same experiment using standard cAMP concentrations. Concentration response curves for agonists are constructed and data is fitted to a four parameter logistic equation to determine both the pEC50 and Intrinsic Activity. Intrinsic Activity is expressed as a fraction relative to the maximum activity determined for formoterol in each experiment.

T2 sequence (P07550 whole entry): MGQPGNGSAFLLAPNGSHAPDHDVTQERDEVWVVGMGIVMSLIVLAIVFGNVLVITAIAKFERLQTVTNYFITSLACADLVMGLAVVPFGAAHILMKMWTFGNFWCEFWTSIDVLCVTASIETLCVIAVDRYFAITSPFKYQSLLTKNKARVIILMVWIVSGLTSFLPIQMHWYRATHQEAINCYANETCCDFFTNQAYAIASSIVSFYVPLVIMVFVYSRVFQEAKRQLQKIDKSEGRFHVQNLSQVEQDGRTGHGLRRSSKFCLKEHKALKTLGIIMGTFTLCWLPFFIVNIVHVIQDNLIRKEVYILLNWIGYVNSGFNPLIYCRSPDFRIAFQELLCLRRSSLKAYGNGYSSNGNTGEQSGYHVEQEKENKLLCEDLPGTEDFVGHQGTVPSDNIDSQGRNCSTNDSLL
T1 sequence (P20309 whole entry): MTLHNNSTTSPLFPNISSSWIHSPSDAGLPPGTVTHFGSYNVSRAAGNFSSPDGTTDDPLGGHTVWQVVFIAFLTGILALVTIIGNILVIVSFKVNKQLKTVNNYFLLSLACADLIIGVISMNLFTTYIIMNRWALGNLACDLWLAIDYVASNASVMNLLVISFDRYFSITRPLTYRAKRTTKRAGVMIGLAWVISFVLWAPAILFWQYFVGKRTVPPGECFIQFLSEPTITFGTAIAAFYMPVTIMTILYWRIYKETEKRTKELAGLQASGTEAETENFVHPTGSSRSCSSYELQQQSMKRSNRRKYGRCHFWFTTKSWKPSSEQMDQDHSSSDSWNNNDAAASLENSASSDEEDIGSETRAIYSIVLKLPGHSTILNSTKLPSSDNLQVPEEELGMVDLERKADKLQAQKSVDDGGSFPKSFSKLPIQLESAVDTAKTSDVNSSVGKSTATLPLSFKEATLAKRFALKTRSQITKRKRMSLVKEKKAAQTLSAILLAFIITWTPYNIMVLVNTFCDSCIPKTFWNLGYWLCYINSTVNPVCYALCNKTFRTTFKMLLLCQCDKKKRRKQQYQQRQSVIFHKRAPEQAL

| SMILES | IC50 [1] | EC50 [2] | β2 Intrinsic Activity [2] |
| --- | --- | --- | --- |
| CC(C)c1nc(C(=O)N2CCOC3(CCN(CCc4cccc(CCOCCC(=O)N(CCNCCc5ccc(O)c6c5OCC(=O)N6)Cc5ccccc5)c4)CC3)C2)cs1 [Example 41, N-Benzyl-N-(2-(2-(5-hydroxy-3-oxo-3,4-dihydro-2H-benzo[b][1,4]oxazin-8-yl)ethylamino)ethyl)-3-(3-(2-(4-(2-isopropylthiazole-4-carbonyl)-1-oxa-4,9-diazaspiro[5.5]undecan-9-yl)ethyl)phenethoxy)propanamide ditrifluoroacetate] | 0.794 nM | 20 nM | 0.9 |
| CCN(CCNCCc1ccc(O)c2c1OCC(=O)N2)C(=O)CCOCCc1cccc(CCN2CC3(C2)CN(C(=O)c2csc(C(C)C)n2)CCO3)c1 [Example 177, N-ethyl-N-(2-(2-(5-hydroxy-3-oxo-3,4-dihydro-2H-benzo[b][1,4]oxazin-8-yl)ethylamino)ethyl)-3-(3-(2-(8-(2-isopropylthiazole-4-carbonyl)-5-oxa-2,8-diazaspiro[3.5]nonan-2-yl)ethyl)phenethoxy)propanamide, trifluoroacetate salt] | 1.26 nM | 10 nM | 1.1 |
| CCN(CCNCCc1ccc(O)c2[nH]c(=O)sc12)C(=O)CCOCCCc1cccc(CN2CCC3(CC2)CN(C(=O)c2csc(C(C)C)n2)CCO3)c1F [Example 66, N-Ethyl-3-(3-(2-fluoro-3-((4-(2-isopropylthiazole-4-carbonyl)-1-oxa-4,9-diazaspiro[5.5]undecan-9-yl)methyl)phenyl)propoxy)-N-(2-(2-(4-hydroxy-2-oxo-2,3-dihydrobenzo[d]thiazol-7-yl)ethylamino)ethyl)propanamide ditrifluoroacetate] | 0.501 nM | 251 nM | 0.5 |
| CCCCN(CCNCCc1ccc(O)c2c1OCC(=O)N2)C(=O)CCOCCc1cc(C)cc(CN2CCC3(CC2)CN(C(=O)c2csc(C(C)C)n2)CCO3)c1 [Example 65, N-Butyl-N-(2-(2-(5-hydroxy-3-oxo-3,4-dihydro-2H-benzo[b][1,4]oxazin-8-yl)ethylamino)ethyl)-3-(3-((4-(2-isopropylthiazole-4-carbonyl)-1-oxa-4,9-diazaspiro[5.5]undecan-9-yl)methyl)-5-methylphenethoxy)propanamide ditrifluoroacetate] | 0.501 nM | 63.1 nM | 1.0 |
| CC(C)c1nc(C(=O)N2CCOC3(CCN(Cc4cccc(CCOCCC(=O)N(CCNCCc5ccc(O)c6c5OCC(=O)N6)CC(F)F)c4F)CC3)C2)cs1 [Example 73, N-(2,2-Difluoroethyl)-3-(2-fluoro-3-((4-(2-isopropylthiazole-4-carbonyl)-1-oxa-4,9-diazaspiro[5.5]undecan-9-yl)methyl)phenethoxy)-N-(2-(2-(5-hydroxy-3-oxo-3,4-dihydro-2H-benzo[b][1,4]oxazin-8-yl)ethylamino)ethyl)propanamide ditrifluoroacetate] | 0.1 nM | 25.1 nM | 1.1 |
| CCCCN(CCNCCc1ccc(O)c2c1OCC(=O)N2)C(=O)CCOCCc1cccc(CCN2CCC3(CC2)CN(C(=O)c2csc(C(C)C)n2)CCO3)c1 [Example 34, N-Butyl-N-(2-(2-(5-hydroxy-3-oxo-3,4-dihydro-2H-benzo[b][1,4]oxazin-8-yl)ethylamino)ethyl)-3-(3-(2-(4-(2-isopropylthiazole-4-carbonyl)-1-oxa-4,9-diazaspiro[5.5]undecan-9-yl)ethyl)phenethoxy)propanamide ditrifluoroacetate] | 1 nM | 10 nM | 1.0 |
| Cc1ccccc1CN(CCNCCc1ccc(O)c2c1OCC(=O)N2)C(=O)CCOCCc1cccc(CN2CCC3(CC2)CN(C(=O)c2csc(C(C)C)n2)CCO3)c1F [Example 21, 3-(2-Fluoro-3-((4-(2-isopropylthiazole-4-carbonyl)-1-oxa-4,9-diazaspiro[5.5]undecan-9-yl)methyl)phenethoxy)-N-(2-(2-(5-hydroxy-3-oxo-3,4-dihydro-2H-benzo[1)][1,4]oxazin-8-yl)ethylamino)ethyl)-N-(2-methylbenzyl)propanamide ditrifluoroacetate] | 0.316 nM | 63.1 nM | 1.1 |
| CCN(CCNCCc1ccc(O)c2[nH]c(=O)sc12)C(=O)CCOCCc1ccc(CCN2CCC3(CC2)CN(C(=O)c2csc(C(C)C)n2)CCO3)s1 [Example 52, N-Ethyl-N-(2-(2-(4-hydroxy-2-oxo-2,3-dihydrobenzo[d]thiazol-7-yl)ethylamino)ethyl)-3-(2-(5-(2-(4-(2-isopropylthiazole-4-carbonyl)-1-oxa-4,9-diazaspiro[5.5]undecan-9-yl)ethyl)thiophen-2-yl)ethoxy)propanamide ditrifluoroacetate] | 1.58 nM | 12.6 nM | 0.9 |
| CCCN(CCNCCc1ccc(O)c2[nH]c(=O)sc12)C(=O)CCOCCc1ccc(CCN2CCC3(CC2)CN(C(=O)c2csc(CC)n2)CCO3)cc1 [Example 3, 3-(4-(2-(4-(2-Ethylthiazole-4-carbonyl)-1-oxa-4,9-diazaspiro[5.5]undecan-9-yl)ethyl)phenethoxy)-N-(2-(2-(4-hydroxy-2-oxo-2,3-dihydrobenzo[d]thiazol-7-yl)ethylamino)ethyl)-N-propylpropanamide ditrifluoroacetate] | 1 nM | 200 nM | 1.0 |
| CC(C)c1nc(C(=O)N2CCOC3(CCN(Cc4cccc(CCOCCC(=O)N(CCF)CCNCCc5ccc(O)c6c5OCC(=O)N6)c4F)CC3)C2)cs1 [Example 72, 3-(2-Fluoro-3-((4-(2-isopropylthiazole-4-carbonyl)-1-oxa-4,9-diazaspiro[5.5]undecan-9-yl)methyl)phenethoxy)-N-(2-fluoroethyl)-N-(2-(2-(5-hydroxy-3-oxo-3,4-dihydro-2H-benzo[b][1,4]oxazin-8-yl)ethylamino)ethyl)propanamide ditrifluoroacetate] | 0.126 nM | 31.6 nM | 0.9 |
| CCCCN(CCCNCCc1ccc(O)c2c1OCC(=O)N2)C(=O)CCOCCc1cccc(CN2CCC3(CC2)CN(C(=O)c2csc(CC)n2)CCO3)c1Cl [Example 80] | 0.631 nM | 63.1 nM | 0.5 |
| CCN(CCNCCc1ccc(O)c2[nH]c(=O)sc12)C(=O)CCOCCc1cccc(CN2CCC3(CC2)CN(C(=O)c2csc(C(C)C)n2)CCO3)c1Cl [Example 28, 3-(2-Chloro-3-((4-(2-isopropylthiazole-4-carbonyl)-1-oxa-4,9-diazaspiro[5.5]undecan-9-yl)methyl)phenethoxy)-N-ethyl-N-(2-(2-(4-hydroxy-2-Oxo-2,3-dihydrobenzo[d]thiazol-7-yl)ethylamino)ethyl)propanamide ditrifluoroacetate] | 2 nM | 12.6 nM | 0.8 |
| CCc1nc(C(=O)N2CCOC3(CCN(Cc4cccc(CCOCCC(=O)N(CCNCCc5ccc(O)c6c5OCC(=O)N6)C5CCCC5)c4Cl)CC3)C2)cs1 [Example 33a, 3-(2-chloro-3-((4-(2-ethylthiazole-4-carbonyl)-1-oxa-4,9-diazaspiro[5.5]undecan-9-yl)methyl)phenethoxy)-N-cyclopentyl-N-(2-(2-(5-hydroxy-3-oxo-3,4-dihydro-2H-benzo[b][1,4]oxazin-8-yl)ethylamino)ethyl)propanamide, sulphate salt] | 0.501 nM |  |  |
